# Source: patent US20200037600A1, “MESOIONIC IMIDAZOPYRIDINES AS INSECTICIDES” (Bayer Aktiengesellschaft, priority 2017, published 2020)
# How the values were obtained:
# Ctenocephalides felis [1] = assay: Ctenocephalides felis in vitro contact test with adult cat fleas; assay type: in vivo; settings: application rate 5 μg/cm^2 (=500 g/ha), after 48 h
# Protocol: Ctenocephalides felis—In Vitro Contact Tests with Adult Cat Fleas
# (§1) For the coating of the test tubes, 9 mg of active compound are first dissolved in 1 ml of acetone p.a. and then diluted to the desired concentration with acetone p.a. 250 μl of the solution are distributed homogeneously on the inner walls and the base of a 25 ml glass tube by turning and rocking on an orbital shaker (rocking rotation at 30 rpm for 2 h). With 900 ppm of active compound solution and internal surface area 44.7 cm^2, given homogeneous distribution, an area-based dose of 5 μg/cm^2 is achieved.
# After the solvent has evaporated off, the tubes are populated with 5-10 adult cat fleas (Ctenocephalides felis), sealed with a perforated plastic lid and incubated in a horizontal position at room temperature and ambient humidity. After 48 h, efficacy is determined. To this end, the tubes are stood upright and the fleas are knocked to the base of the tube. Fleas which remain motionless at the base or move in an uncoordinated manner are considered to be dead or moribund.
# 100% efficacy means that all the fleas were dead or moribund. 0% efficacy means that no fleas were harmed.
# Rhipicephalus sanguineus = Rhipicephalus sanguineus in vitro contact test with adults of the brown dog tick; assay type: in vivo; settings: application rate 5 μg/cm^2 (=500 g/ha), adult dog ticks, after 48 h
# Protocol: Rhipicephalus sanguineus—In Vitro Contact Tests with Adults of the Brown Dog Tick
# as §1
# After the solvent has evaporated off, the tubes are populated with 5-10 adult dog ticks (Rhipicephalus sanguineus), sealed with a perforated plastic lid and incubated in the dark in a horizontal position at room temperature and ambient humidity. After 48 h, efficacy is determined. To this end, the ticks are knocked to the base of the tube and, incubated on a heating plate at 45-50° C. for a maximum of 5 minutes. Ticks which remain motionless at the base or move in such an uncoordinated manner that they cannot purposely escape the heat by climbing upward are considered to be dead or moribund.
# 100% efficacy means that all the ticks were dead or moribund. 0% efficacy means that no ticks were harmed.
# Ctenocephalides felis [2] = assay: Ctenocephalides felis oral test; assay type: in vivo; settings: application rate 100 ppm in citrated cattle blood; adult cat fleas; after 2 days
# Protocol: Ctenocephalides felis—Oral Test
# (§2) Solvent: dimethyl sulfoxide
# To produce a suitable active compound formulation, 10 mg of active compound are mixed with 0.5 ml of dimethyl sulfoxide. Dilution with citrated cattle blood gives the desired concentration.
# About 20 unfed adult cat fleas (Ctenocephalides felis) are placed into a chamber which is closed at the top and bottom with gauze. A metal cylinder whose bottom end is closed with parafilm is placed onto the chamber. The cylinder contains the blood/active compound formulation, which can be imbibed by the fleas through the parafilm membrane.
# After 2 days, the kill in % is determined. 100% means that all of the fleas have been killed; 0% means that none of the fleas have been killed.
# Lucilia cuprina = Lucilia cuprina test; assay type: in vivo; settings: application rate 100 ppm; L1 larvae; after 2 days
# Protocol: as §2
# (§3) To produce a suitable active compound formulation, 10 mg of active compound are mixed with 0.5 ml of dimethyl sulfoxide, and the concentrate is diluted with water to the desired concentration.
# About 20 L1 larvae of the Australian sheep blowfly (Lucilia cuprina) are transferred into a test vessel containing minced horsemeat and the active compound formulation of the desired concentration.
# After 2 days, the kill in % is determined. 100% means that all the larvae have been killed; 0% means that no larvae have been killed.
# Diabrotica balteata = Diabrotica balteata spray test; assay type: in vivo; settings: application rate 160 μg/well, beetle larvae on germinated wheat grains, after 7 days; for pest or weed control at 160 µg/disc, 160 µg/well: Diabrotica balteata, 168 h, read-out: efficacy
# Protocol: Diabrotica balteata—Spray Test
# (§4) Solvent: 78 parts by weight of acetone • • 1.5 parts by weight of dimethylformamide
# (§5) Emulsifier: alkylaryl polyglycol ether
# (§6) To produce a suitable active compound formulation, 1 part by weight of active compound is dissolved with the specified parts by weight of solvent and made up to the desired concentration with water containing an emulsifier concentration of 1000 ppm. To produce further test concentrations, the formulation is diluted with emulsifier-containing water.
# Pre-swollen wheat grains (Triticum aestivum) are incubated in a multiwell plate filled with agar and a little water for one day (5 seed grains per well). The germinated wheat grains are sprayed with an active compound preparation of the desired concentration. Subsequently, each cavity is infected with 10-20 beetle larvae of Diabrotica balteata.
# After 7 days, the efficacy in % is determined. 100% means that all maize plants have grown as in the untreated, uninfected control; 0% means that no maize plant has grown.
# Myzus persicae [3] = assay: Myzus persicae oral test; assay type: in vivo; settings: after 5 days; for pest or weed control at 4 ppm: Myzus persicae, po, 120 h, read-out: efficacy
# Protocol: Solvent: 100 parts by weight of acetone
# To produce a suitable active compound formulation, 1 part by weight of active compound is dissolved with the stated parts by weight of solvent and made up to the desired concentration with water.
# 50 μl of the active compound formulation are transferred into microtitre plates and made up to a final volume of 200 μl with 150 μl of IPL41 insect medium (33%+15% sugar). Subsequently, the plates are sealed with parafilm, which a mixed population of green peach aphids (Myzus persicae) within a second microtitre plate is able to puncture and imbibe the solution.
# (§7) After 5 days, the efficacy in % is determined. 100% means that all the aphids have been killed; 0% means that no aphids have been killed.
# Myzus persicae [4] = assay: Myzus persicae spray test; assay type: in vivo; settings: application rate 500 g/ha, Chinese cabbage leaf discs, after 5 days; for pest or weed control at 500 g/ha: Myzus persicae, foliar, 120 h, read-out: efficacy
# Protocol: Myzus persicae—Spray Test
# as §4, §5, §6
# Discs of Chinese cabbage leaves (Brassica pekinensis) infested by all stages of the green peach aphid (Myzus persicae) are sprayed with an active compound formulation of the desired concentration.
# as §7
# Phaedon cochleariae = Phaedon cochleariae spray test; assay type: in vivo; settings: foliar, 168 h, application rate 500 g/ha, larvae on Chinese cabbage leaf discs, after 7 days, read-out: efficacy
# Protocol: Phaedon cochleariae—Spray Test
# (§8) Solvent: 78.0 parts by weight of acetone • • 1.5 parts by weight of dimethylformamide
# as §5, §6
# Discs of Chinese cabbage leaves (Brassica pekinensis) are sprayed with an active compound formulation of the desired concentration and, after drying, populated with larvae of the mustard beetle (Phaedon cochleariae).
# After 7 days, the efficacy in % is determined. 100% means that all the beetle larvae have been killed; 0% means that no beetle larvae have been killed.
# Spodoptera frugiperda = Spodoptera frugiperda spray test; assay type: in vivo; settings: application rate 500 g/ha; caterpillars on maize leaf discs; after 7 days
# Protocol: Spodoptera frugiperda—Spray Test
# as §8, §5, §6
# Leaf discs of maize (Zea mays) are sprayed with an active compound formulation of the desired concentration and, after drying, populated with caterpillars of the fall armyworm (Spodoptera frugiperda).
# After 7 days, the efficacy in % is determined. 100% means that all the caterpillars have been killed; 0% means that no caterpillar has been killed.
# [5] = log P by HPLC (EEC directive 79/831 Annex V.A8); assay type: physicochemical
# Protocol: The log P values reported in the tables and preparation examples above were determined in accordance with EEC directive 79/831 Annex V.A8 by HPLC (High Performance Liquid Chromatography) using a reversed-phase column (C18). Temperature 43° C. The calibration is effected with unbranched alkan-2-ones (having 3 to 16 carbon atoms), for which the log P values are known.
# Musca domestica = Musca domestica test; assay type: in vivo; settings: application rate 100 ppm; adult houseflies; after 2 days
# Protocol: as §2, §3
# Vessels containing a sponge treated with sugar solution and the active compound formulation of the desired concentration are populated with 10 adult houseflies (Musca domestica).
# After 2 days, the kill in % is determined. 100% means that all of the flies have been killed; 0% means that none of the flies have been killed.
# Tetranychus urticae = Tetranychus urticae spray test, OP-resistant; assay type: in vivo; settings: application rate 500 g/ha, bean leaf discs, after 6 days
# Protocol: Tetranychus urticae—Spray Test, OP-Resistant
# as §8, §5, §6
# Discs of bean leaves (Phaseolus vulgaris) infested by all stages of the red spider mite (Tetranychus urticae) are sprayed with an active compound formulation of the desired concentration.
# After 6 days, the efficacy in % is determined. 100% means that all the spider mites have been killed; 0% means that no spider mites have been killed.
compound,measurement,setting,value
"Cc1ccc[n+]2c([O-])c(C(=O)C(F)(F)F)n(Cc3cnc(Cl)s3)c12 [Example I-024, 1-[(2-Chlorothiazol-5-yl)methyl]-8-methyl-2-(2,2,2-trifluoroacetyl)imidazo[1,2-a]pyridin-4-ium-3-olate]",efficacy,Ctenocephalides felis [1],100%
same,efficacy,Rhipicephalus sanguineus,100%
same,efficacy (kill in %),Ctenocephalides felis [2],90%
same,efficacy (kill in %),Lucilia cuprina,100%
same,"pest or weed control at 160 µg/disc, 160 µg/well",Diabrotica balteata,100%
same,pest or weed control at 4 ppm,Myzus persicae [3]; application rate 4 ppm,100%
same,pest or weed control at 500 g/ha,Myzus persicae [4],90%
same,pest or weed control at 500 g/ha,Phaedon cochleariae,100%
same,efficacy,Spodoptera frugiperda,83%
same,chromatographic logP,[5],2.07
O=C(c1ccccc1)c1c([O-])[n+]2ccccc2n1Cc1cnc(Cl)s1 [Example I-013],efficacy,Ctenocephalides felis [1],100%
same,efficacy (kill in %),Musca domestica,90%
same,efficacy,Diabrotica balteata,80%
same,efficacy,Myzus persicae [3]; application rate 4 ppm,100%
same,efficacy,Myzus persicae [3]; application rate 20 ppm,100%
same,efficacy,Myzus persicae [4],100%
Cc1ccc[n+]2c([O-])c(C(=O)C(F)F)n(Cc3cnc(Cl)s3)c12 [Example I-061],pest or weed control at 4 ppm,Myzus persicae [3]; application rate 4 ppm,100%
same,pest or weed control at 500 g/ha,Phaedon cochleariae,100%
same,efficacy,Spodoptera frugiperda,100%
CN(C)C(=O)C(=O)c1c([O-])[n+]2ccccc2n1Cc1cnc(Cl)s1 [Example I-041],efficacy,Tetranychus urticae,90%
CCOC(=O)C(=O)c1c([O-])[n+]2cccc(C)c2n1Cc1cnc(Cl)s1 [Example I-033],efficacy,Ctenocephalides felis [1],100%
same,efficacy (kill in %),Ctenocephalides felis [2],95%
same,efficacy (kill in %),Musca domestica,100%
same,"pest or weed control at 160 µg/disc, 160 µg/well",Diabrotica balteata,100%
same,pest or weed control at 4 ppm,Myzus persicae [3]; application rate 4 ppm,100%
same,pest or weed control at 500 g/ha,Myzus persicae [4],90%
Cc1ccc[n+]2c([O-])c(C(=O)C(=O)OCC3CCC3)n(Cc3cnc(Cl)s3)c12 [Example I-046],"pest or weed control at 160 µg/disc, 160 µg/well",Diabrotica balteata,100%
same,pest or weed control at 4 ppm,Myzus persicae [3]; application rate 4 ppm,100%
same,pest or weed control at 500 g/ha,Myzus persicae [4],90%
same,pest or weed control at 500 g/ha,Phaedon cochleariae,100%
same,efficacy,Spodoptera frugiperda,83%
O=C(OCC1CCC1)C(=O)c1c([O-])[n+]2ccccc2n1Cc1cnc(Cl)s1 [Example I-039],efficacy,Myzus persicae [3]; application rate 4 ppm,100%
same,efficacy,Myzus persicae [4],90%
same,efficacy,Tetranychus urticae,90%
O=C(c1c([O-])[n+]2ccccc2n1Cc1cnc(Cl)s1)C(F)(F)F [Example I-007],efficacy,Ctenocephalides felis [1],100%
same,efficacy (kill in %),Ctenocephalides felis [2],95%
same,efficacy (kill in %),Lucilia cuprina,85%
same,efficacy (kill in %),Musca domestica,90%
same,efficacy,Diabrotica balteata,100%
same,efficacy,Myzus persicae [3]; application rate 4 ppm,100%
same,efficacy,Myzus persicae [3]; application rate 20 ppm,100%
same,efficacy,Myzus persicae [4],100%
O=C(c1c([O-])[n+]2ccccc2n1Cc1cnc(Cl)s1)C(F)(F)Cl [Example I-019],efficacy,Ctenocephalides felis [1],100%
same,efficacy (kill in %),Ctenocephalides felis [2],95%
same,efficacy (kill in %),Lucilia cuprina,95%
same,efficacy (kill in %),Musca domestica,80%
same,efficacy,Diabrotica balteata,100%
same,efficacy,Myzus persicae [3]; application rate 4 ppm,100%
same,efficacy,Myzus persicae [4],100%
same,efficacy,Spodoptera frugiperda,100%
"O=Cc1c([O-])[n+]2ccccc2n1Cc1cnc(Cl)s1 [Example I-015, 1-[(2-Chlorothiazol-5-yl)methyl]-2-formylimidazo[1,2-a]pyridin-4-ium-3-olate]",efficacy,Ctenocephalides felis [1],100%
same,"pest or weed control at 160 µg/disc, 160 µg/well",Diabrotica balteata,100%
same,pest or weed control at 4 ppm,Myzus persicae [3]; application rate 4 ppm,100%
same,pest or weed control at 500 g/ha,Myzus persicae [4],90%
same,chromatographic logP,[5],1.01
"O=C(c1c([O-])[n+]2ccccc2n1Cc1cnc(Cl)s1)C(Cl)(Cl)Cl [Example I-011, 1-[(2-Chlorothiazol-5-yl)methyl]-2-(2,2,2-trichloroacetyl)imidazo[1,2-a]pyridin-4-ium-3-olate]","pest or weed control at 160 µg/disc, 160 µg/well",Diabrotica balteata,100%
same,pest or weed control at 4 ppm,Myzus persicae [3]; application rate 4 ppm,100%
same,pest or weed control at 500 g/ha,Myzus persicae [4],90%
same,efficacy,Spodoptera frugiperda,100%
same,chromatographic logP,[5],2.44
Cc1ccc[n+]2c([O-])c(C(=O)C(F)(F)Cl)n(Cc3cnc(Cl)s3)c12 [Example I-060],pest or weed control at 500 g/ha,Phaedon cochleariae,100%
same,efficacy,Spodoptera frugiperda,100%
CCN(CC)C(=O)C(=O)c1c([O-])[n+]2ccccc2n1Cc1cnc(Cl)s1 [Example I-040],efficacy,Myzus persicae [4],90%
same,efficacy,Tetranychus urticae,100%
CCC(C)OC(=O)C(=O)c1c([O-])[n+]2ccccc2n1Cc1cnc(Cl)s1 (centres unmarked) [Example I-037],efficacy (kill in %),Lucilia cuprina,95%
same,efficacy (kill in %),Musca domestica,100%
same,efficacy,Diabrotica balteata,100%
same,efficacy,Myzus persicae [3]; application rate 4 ppm,100%
same,efficacy,Myzus persicae [4],100%
same,efficacy,Tetranychus urticae,90%
COCCOC(=O)C(=O)c1c([O-])[n+]2ccccc2n1Cc1cnc(Cl)s1 [Example I-050],efficacy,Myzus persicae [3]; application rate 4 ppm,100%
same,efficacy,Myzus persicae [4],100%
same,efficacy,Tetranychus urticae,90%
CC(C)OC(=O)C(=O)c1c([O-])[n+]2ccccc2n1Cc1cnc(Cl)s1 [Example I-038],efficacy,Rhipicephalus sanguineus,100%
same,efficacy,Rhipicephalus sanguineus; listed as 1-038,80%
same,efficacy (kill in %),Ctenocephalides felis [2],80%
same,efficacy (kill in %),Lucilia cuprina,90%
same,efficacy (kill in %),Musca domestica,100%
same,efficacy,Myzus persicae [3]; application rate 4 ppm,100%
same,efficacy,Myzus persicae [4],90%
Cc1ccc[n+]2c([O-])c(C(=O)C(F)(F)C(F)F)n(Cc3cnc(Cl)s3)c12 [Example I-063],pest or weed control at 4 ppm,Myzus persicae [3]; application rate 4 ppm,100%
same,pest or weed control at 500 g/ha,Phaedon cochleariae,100%
same,efficacy,Spodoptera frugiperda,100%
